Our source for the melting point values is a melting point compilation (Tetko et al.; mined from patent text by program, amines drawn as free bases though some values may be those of a salt).

Usually melting point stands for the temperature of the solid-liquid transition. Regarding `N=C(N)NCCNc1c(C(=O)O)cnc2ccccc12`, the melting point came to 267 °C. Next, `Cc1cc(SC2=C(O)CC(CCc3ccco3)(C(C)C)OC2=O)c(C(C)(C)C)cc1CO` (stereo not given): 64 to 110 °C. `CC(=O)c1ccccc1Nc1ccc(O)cc1` gave a melting point of 168 to 169 °C. In turn, `CCCCCCCCCCN(O)C(=O)NC` registered a melting point of 96 to 97 °C. Next, `COCOc1cc(Cl)ccc1-c1cc(-c2cccc([N+](=O)[O-])c2)c(C#N)c(NC(=O)c2ccco2)n1`: 154 to 155 °C; `COC(=O)c1ccc2c(c1)CCN2C(=O)OC(C)(C)C`: 107 to 108 °C; `CS(=O)(=O)c1cc(Cl)cc(O)c1O`: 142 to 145 °C.

Compound `O=C(C1CCC(Nc2nccc(-n3nnc4c(-c5ccoc5)cccc43)n2)CC1)N1CCC(O)CC1` (stereo not given) gave a melting point of 243 to 244 °C. Under `CNc1c([N+](=O)[O-])ccc(Cl)c1Cl` stands 82 °C; under `Cc1nn(C)c2ncc(C(=O)O)c(NCS(=O)(=O)c3ccc(F)cc3)c12`, 275 to 276 °C. Next, `CCc1cccc(CC)c1C(=O)Nc1nnc(C(C)(CC)CC)s1`: 186 to 188 °C; `COc1ccc2c3c1O[C@H]1C[C@@H](O)C=C[C@@]31CCN(CCN1CCOCC1)C2`: 101 to 104 °C. Under `Nc1ncc(Cl)cc1O` stands 196 to 201 °C; under `O=C(Nc1ccccc1)C1=Cc2ccccc2S1(=O)=O`, over 220 °C. Consider `CC(=O)N1c2ccc(-c3ccc(C(=O)O)cc3)cc2[C@H](Nc2ccc(Cl)cc2)C[C@@H]1C`, for which the melting point worked out at 275 °C. Next, `COc1ccc(C(=O)c2ccco2)cc1OC`: 112 to 114 °C; `Oc1ccc(-c2ncnc(C(F)(F)F)c2Cl)cc1`: 149 to 151 °C. Under `CCCCCCCCNC(=O)NCc1ccc(O)c(OC)c1` stands 90 to 92 °C. Next, `CCOc1cc(N(Cc2cncnc2)c2ccc(C(=O)O)cc2)ccc1OC(F)F`: 165 to 166 °C; `CC(N)CNC(=O)Nc1ccccc1` (stereo not given): 118 to 120 °C. In turn, `O=c1n(CCCCN2CCN(c3ccccc3)CC2)nc2n1-c1ccccc1OC2` came in with a melting point of 85 to 87 °C. Next, `CCCCc1ncc(/C=C(\Cc2ccc(C)s2)c2nnn[nH]2)n1Cc1ccccc1Cl`: 151 to 153 °C; `N#CCc1cccc([N+](=O)[O-])c1[N+](=O)[O-]`: 88 to 90 °C; `O=C1OC(=O)c2c3ccccc3cc3cccc1c23`: 289 to 290 °C. Next, `CCc1nc2c(C)cc(C)nc2n1C1CCc2cc(-c3ccccc3-c3nnn[nH]3)ccc21` (stereo not given): 181 °C; `Cc1cc(Cc2cnc(NCCCCc3ncc(Br)cc3C)[nH]c2=O)cnc1C`: 126 to 128 °C. Under `CC(C)N1CCN(C(=O)c2ccc(-c3ccc(=O)n(C)n3)cc2)CC1` stands 131 to 132 °C; under `COC(=O)Cc1cn(Cc2ccccc2)nc1O`, 118 to 119 °C; under `O=P(O)(O)C(F)(F)c1ccc(CNCc2ccc(C(F)(F)P(=O)(O)O)cc2)cc1`, 106 to 108 °C. Compound `Cc1cn(Nc2ccncn2)c2ccccc12` showed a melting point of 121 to 123 °C. Next, `O=C(O)c1ccc(F)c(F)c1Nc1ccc(I)cc1Cl`: 226 to 227 °C.

In turn, `CCOC(=O)c1nc2ccc(C(C(C)C)n3ccnc3)cc2[nH]c1=O` (stereo not given) displayed a melting point of 185 °C. Next, `NN=C1c2ccccc2-c2ccc(F)cc21`: 161 to 165 °C. Next, `CCOC(=O)C(=Cc1c(C)cc(C)cc1C)C(=O)CCl`: 85 °C. Under `COc1ccc(C(=O)Nc2cc(NC(=O)c3ccc(OCCN4CCCC4)cc3)ccc2C)cc1OC` stands 258 to 259 °C; under `CC1CCCN1CC=CC(=O)Nc1cc2c(Nc3ccc(F)c(Cl)c3)ncnc2cc1OCC1CC1` (stereo not given), 108 to 110 °C; under `CNS(=O)(=O)c1c(C)n(C)c2cc(F)ccc2c1=O`, 184 °C. For the compound `CCOc1cc(OCC)c2c(C)c(CCO)c(=O)oc2c1`, the melting point fell in the range of 117 to 119 °C. Under `CC(C)(C)c1ccc(C(=O)c2ccc3n2Cc2ccccc2N(C(=O)COc2ccc(Cl)cc2)C3)cc1` stands 171 °C; under `Cc1ccc(S(=O)(=O)OC(c2cccc(C(OS(=O)(=O)c3ccc(C)cc3)(C(F)(F)F)C(F)(F)F)c2)(C(F)(F)F)C(F)(F)F)cc1`, 131 °C; under `O=Cc1cccc2c1sc1cc3ccccc3cc12`, 202 to 204 °C. `COC(=O)CN(C)C(=S)c1cccc2c(Br)cccc12` yielded a melting point of 85 to 86 °C. Under `CCCCOc1ccc(S(=O)(=O)C2(C(=O)O)CCN(CC)CC2)cc1` stands 162 °C. Under `COc1ccc(-c2oc(C(=O)O)cc(=O)c2O)cc1` stands 258 to 260 °C; under `C[C@H](Nc1c(-c2c(F)cc(F)cc2F)c(Br)nc2ncnn12)C(F)(F)F`, 95 to 97 °C. Under `CCOc1c(SC(F)(F)F)c(C#N)nn1-c1c(Cl)cc(C(F)(F)F)cc1Cl` stands 106 °C; under `CS(=O)(=O)c1ccc(Oc2cc(OCc3cccc(Cl)n3)c3[nH]c(C(N)=O)cc3c2)cc1`, 259 to 260 °C. Take `NC(CCCCNC(=O)NC(Cc1c[nH]c2ccccc12)C(=O)O)C(=O)O` (stereo not given): the melting point was found to be 133 °C. Under `COC(=O)c1cnc(S)n1C1CC(C)c2ccccc21` (stereo not given) stands 177 °C; under `COc1cc(Nc2c(C#N)cnc3cc(OCC(C)(C)CN(C)C)c(OC)cc23)c(Cl)cc1Cl`, 178 to 180 °C; under `Nc1c(Cl)cccc1CO`, 56 to 68 °C. Under `CN1CC(CN)Oc2c(-c3cccc(Cl)c3)cccc21` (stereo not given) stands 134 °C; under `O=C(O)CNCCOc1cccc(CCNS(=O)(=O)c2ccc(Cl)cc2)c1`, 205 to 207 °C.

In turn, `CC(C)CC1(CCCCN2CCN(c3cccc4c3OCCO4)CC2)C(=O)Nc2ccccc21` (stereo not given) registered a melting point of 152 to 154 °C. Next, `Cc1cc(-c2cc(C(F)(F)F)n3ncc(-c4ccnc(CO)c4)c3n2)ccc1C(F)(F)F`: 231 °C; `Oc1ccc(CCCn2ccnc2S)cc1`: 185 °C. The compound `COC(=O)c1cc(S(N)(=O)=O)c(OC)c2c1OCCO2` yielded a melting point of 202 to 203 °C.

For `Nc1ccc2c(n1)CCO2`, the melting point is 129 to 131 °C. Under `C[C@H]1Oc2cccc(F)c2N(C)C(=O)[C@H]1NC(=O)OC(C)(C)C` stands 130 to 138 °C.

`Cn1c(NCCCCCC(=O)O)c(NC=O)c(=O)n(C)c1=O`: the melting point was in the range of 152 to 153 °C. Next, `CNc1ncc(-c2cc(Cl)cc(Cl)c2Cl)c(N)n1`: 155 to 157 °C; `CNC(=O)NN(CC(=O)OC)c1cccc(I)c1`: 150 °C. Under `CC(=O)N1CCc2c(c3ccc(-n4ccc(OCc5ccccc5)cc4=O)nc3n2C)C1` stands 206 to 208 °C. With `CC(C)NCC(O)COc1ccc2ncsc2c1` (stereo not given), the melting point was in the range of 132 to 134 °C.

Compound `COc1cccc(OCCF)c1-c1ccc(C[C@H](NC(=O)c2c(Cl)cccc2Cl)C(=O)O)cc1` showed a melting point of 206 to 207 °C.
